US9676760B2, “Fused heterocyclic compounds as ion channel modulators” (Gilead Sciences, Inc., priority 2011, dated 2017)

Target: wild-type human cardiac sodium channel, hNav1.5 (Homo sapiens, UniProt Q14524)
Assay: Late INa screening assay (QPatch whole cell patch clamp, HEK293)
Type: cell-based
Details: HEK293, percent block of late INa; compound at 1 μM; 10 μM Tefluthrin; read-out: Late INa 1 μM
Outline: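 HEK293 stably expressing hNav1.5 without beta subunits, recorded at 23-25° C. Late current was induced by 10 μM tefluthrin. Cells were depolarized from −120 mV to −20 mV for 250 ms at 0.1 Hz. Compounds were tested at 1 μM in extracellular solution, with baseline taken in 0Na-ECF; output is percent block of late INa.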

wild-type human cardiac sodium channel, hNav1.5, sequence (Q14524 whole entry): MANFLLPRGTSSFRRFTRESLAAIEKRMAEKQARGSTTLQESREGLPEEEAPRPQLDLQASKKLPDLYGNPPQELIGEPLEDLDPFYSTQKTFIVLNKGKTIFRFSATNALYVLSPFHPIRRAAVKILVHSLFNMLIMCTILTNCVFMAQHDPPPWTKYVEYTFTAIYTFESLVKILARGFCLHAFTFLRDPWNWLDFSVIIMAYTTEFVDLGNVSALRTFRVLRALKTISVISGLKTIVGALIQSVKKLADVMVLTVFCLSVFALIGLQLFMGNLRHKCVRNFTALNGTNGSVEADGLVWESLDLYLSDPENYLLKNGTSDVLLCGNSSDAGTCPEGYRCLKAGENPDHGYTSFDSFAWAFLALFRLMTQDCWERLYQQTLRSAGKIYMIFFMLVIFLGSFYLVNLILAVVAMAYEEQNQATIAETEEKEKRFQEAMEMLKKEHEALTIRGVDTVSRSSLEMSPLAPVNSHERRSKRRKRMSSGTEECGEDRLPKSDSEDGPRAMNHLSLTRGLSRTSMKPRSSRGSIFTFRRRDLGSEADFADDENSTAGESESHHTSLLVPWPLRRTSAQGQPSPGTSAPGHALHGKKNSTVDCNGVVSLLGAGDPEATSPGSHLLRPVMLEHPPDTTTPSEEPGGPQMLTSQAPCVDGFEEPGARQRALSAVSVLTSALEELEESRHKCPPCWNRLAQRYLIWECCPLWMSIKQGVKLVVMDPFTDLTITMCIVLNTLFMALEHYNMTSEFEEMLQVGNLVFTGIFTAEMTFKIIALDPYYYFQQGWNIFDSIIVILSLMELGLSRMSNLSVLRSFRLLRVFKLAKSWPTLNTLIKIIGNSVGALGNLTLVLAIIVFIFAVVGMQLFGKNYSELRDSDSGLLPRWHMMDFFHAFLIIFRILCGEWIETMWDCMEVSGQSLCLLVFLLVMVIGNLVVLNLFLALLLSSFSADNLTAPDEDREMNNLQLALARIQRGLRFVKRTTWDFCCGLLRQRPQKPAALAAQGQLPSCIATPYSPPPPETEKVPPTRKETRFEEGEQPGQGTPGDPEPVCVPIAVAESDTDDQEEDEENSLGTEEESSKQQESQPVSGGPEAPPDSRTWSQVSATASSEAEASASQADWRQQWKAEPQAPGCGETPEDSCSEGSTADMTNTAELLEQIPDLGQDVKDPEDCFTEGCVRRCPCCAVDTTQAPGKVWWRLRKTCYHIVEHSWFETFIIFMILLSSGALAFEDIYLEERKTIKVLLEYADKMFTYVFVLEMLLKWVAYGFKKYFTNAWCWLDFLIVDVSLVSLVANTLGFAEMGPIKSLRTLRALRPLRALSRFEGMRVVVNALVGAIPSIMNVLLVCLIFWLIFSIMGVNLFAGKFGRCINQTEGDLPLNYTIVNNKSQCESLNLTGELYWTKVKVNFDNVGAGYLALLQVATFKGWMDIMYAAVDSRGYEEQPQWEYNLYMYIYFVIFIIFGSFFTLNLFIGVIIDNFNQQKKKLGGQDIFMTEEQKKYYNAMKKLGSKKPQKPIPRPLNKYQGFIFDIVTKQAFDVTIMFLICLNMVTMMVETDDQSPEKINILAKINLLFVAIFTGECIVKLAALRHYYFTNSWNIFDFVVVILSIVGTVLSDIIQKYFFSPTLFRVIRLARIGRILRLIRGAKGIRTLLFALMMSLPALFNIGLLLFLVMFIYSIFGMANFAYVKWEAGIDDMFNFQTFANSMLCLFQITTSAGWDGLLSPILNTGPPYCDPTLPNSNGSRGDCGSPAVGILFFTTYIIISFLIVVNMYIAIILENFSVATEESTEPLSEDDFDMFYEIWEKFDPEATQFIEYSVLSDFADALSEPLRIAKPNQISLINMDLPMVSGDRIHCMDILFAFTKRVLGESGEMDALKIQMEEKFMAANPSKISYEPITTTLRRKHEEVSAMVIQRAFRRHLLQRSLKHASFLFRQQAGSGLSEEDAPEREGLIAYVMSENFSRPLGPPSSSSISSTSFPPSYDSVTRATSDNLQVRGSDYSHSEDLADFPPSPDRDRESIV

SMILES | inhibition at 1 µM [%]
O=C1c2cc(-c3ccc(C(F)(F)F)cc3)ccc2OC[C@@H]2CN(CC(F)F)CCN12 [II-24, (S)-2-(2,2-difluoroethyl)-8-(4-(trifluoromethyl)phenyl)-3,4,12,12a-tetrahydro-1H-benzo[f]pyrazino[2,1-c][1,4]oxazepin-6(2H)-one] | 23
O=C1c2cc(CCc3ccc(C(F)(F)F)cc3)ccc2OCCN1Cc1ccccc1 [VIII-11, 4-benzyl-7-(4-(trifluoromethyl)phenethyl)-3,4-dihydrobenzo[f][1,4]oxazepin-5(2H)-one] | 42
CC(C)(C)C1CC=C(c2ccc3c(c2)C(=O)N(Cc2ncccn2)CCO3)CC1 (centres unmarked) [Compound V-1, 7-(4-tert-butylcyclohex-1-enyl)-4-(pyrimidin-2-ylmethyl)-3,4-dihydrobenzo[f][1,4]oxazepin-5(2H)-one] | 24
O=C1c2cc(-c3ccc(C(F)(F)F)c(F)c3)ccc2OCCN1Cc1ncccn1 [II-136, 7-(3-fluoro-4-(trifluoromethyl)phenyl)-4-(pyrimidin-2-ylmethyl)-3,4-dihydrobenzo[f][1,4]oxazepin-5(2H)-one] | 30
CCN1CCN2C(=O)c3cc(-c4ccc(C(F)(F)F)cc4)ccc3OC[C@@H]2C1 [II-25, (S)-2-ethyl-8-(4-(trifluoromethyl)phenyl)-3,4,12,12a-tetrahydro-1H-benzo[f]pyrazino[2,1-c][1,4]oxazepin-6(2H)-one] | 25
O=C1c2cc(-c3ccc(OC(F)(F)F)cc3)ccc2OCCN1Cc1nccc(C(F)(F)F)n1 [II-113, 7-(4-(trifluoromethoxy)phenyl)-4-((4-(trifluoromethyl)pyrimidin-2-yl)methyl)-3,4-dihydrobenzo[f][1,4]oxazepin-5(2H)-one] | 27
O=C1c2cc(-c3ccc(OCC(F)(F)F)c(F)c3)ccc2OCCN1Cc1ncccn1 [II-106, 7-(3-fluoro-4-(2,2,2-trifluoroethoxy)phenyl)-4-(pyrimidin-2-ylmethyl)-3,4-dihydrobenzo[f][1,4]oxazepin-5(2H)-one] | 18
O=C1c2cc(-c3ccc(OC(F)(F)F)cc3)ccc2OCCN1CCOc1ncccn1 [II-69, 4-(2-(pyrimidin-2-yloxy)ethyl)-7-(4-(trifluoromethoxy)phenyl)-3,4-dihydrobenzo[f][1,4]oxazepin-5(2H)-one] | 33
Cc1cnc(CN2CCOc3ccc(-c4ccc(OC(F)(F)F)cc4)cc3C2=O)cn1 [II-172, 4-((5-methylpyrazin-2-yl)methyl)-7-(4-(trifluoromethoxy)phenyl)-3,4-dihydrobenzo[f][1,4]oxazepin-5(2H)-one] | 33
O=C1c2cc(-c3ccc(OS(=O)(=O)C(F)(F)F)cc3)ccc2OCCN1Cc1ncccn1 [II-171, 4-(5-oxo-4-(pyrimidin-2-ylmethyl)-2,3,4,5-tetrahydrobenzo[f][1,4]oxazepin-7-yl)phenyl trifluoromethanesulfonate] | 24
O=C1c2cc(-c3ccc(OC(F)(F)F)cc3)ccc2OCCN1Cc1nnc(C2CCC2)o1 [II-4, 4-((5-cyclobutyl-1,3,4-oxadiazol-2-yl)methyl)-7-(4-(trifluoromethoxy)phenyl)-3,4-dihydrobenzo[f][1,4]oxazepin-5(2H)-one] | 30
O=C1c2cc(-c3ccc(OC(F)(F)F)cc3)ccc2OCCN1CCO [II-71, 4-(2-hydroxyethyl)-7-(4-(trifluoromethoxy)phenyl)-3,4-dihydrobenzo[f][1,4]oxazepin-5(2H)-one] | 12
O=C1c2cc(-c3ccc(C(F)(F)F)cc3)ccc2OC[C@H]2CCCN12 [II-59, (R)-7-(4-(trifluoromethyl)phenyl)-2,3,11,11a-tetrahydrobenzo[f]pyrrolo[2,1-c][1,4]oxazepin-5(1H)-one] | 15
O=C1c2cc(-c3ccc(OC(F)(F)F)cc3)ccc2OCCN1Cn1ccc(C(F)(F)F)n1 [II-148, 7-(4-(trifluoromethoxy)phenyl)-4-((3-(trifluoromethyl)-1H-pyrazol-1-yl)methyl)-3,4-dihydrobenzo[f][1,4]oxazepin-5(2H)-one] | 17
CCN1CCN2C(=O)c3cc(-c4ccc(C(F)(F)F)cc4)ccc3OC[C@H]2C1 [II-23, (R)-2-ethyl-8-(4-(trifluoromethyl)phenyl)-3,4,12,12a-tetrahydro-1H-benzo[f]pyrazino[2,1-c][1,4]oxazepin-6(2H)-one] | 25
O=C1c2cc(-c3ccc(OC(F)(F)F)cc3)ccc2OCCN1Cc1nccc(N2CCCCC2)n1 [II-139, 4-((4-(piperidin-1-yl)pyrimidin-2-yl)methyl)-7-(4-(trifluoromethoxy)phenyl)-3,4-dihydrobenzo[f][1,4]oxazepin-5(2H)-one] | 31
O=C(c1cccnn1)N1CCOc2ccc(-c3ccc(OC(F)(F)F)cc3)cc2C1 [III-24, pyridazin-3-yl(7-(4-(trifluoromethoxy)phenyl)-2,3-dihydrobenzo[f][1,4]oxazepin-4(5H)-yl)methanone] | 17
CC(C)COc1ccc(-c2ccc3c(c2)C(=O)N(Cc2ncccn2)CCO3)cc1 [II-97, 7-(4-isobutoxyphenyl)-4-(pyrimidin-2-ylmethyl)-3,4-dihydrobenzo[f][1,4]oxazepin-5 (2H)-one] | 36

SMILES | inhibition at 1 µM [%]
O=C1c2cc(-c3ccc(C(F)(F)F)cc3)ccc2OC[C@H]2CN(Cc3ncccn3)CCN12 [II-8, (R)-2-(pyrimidin-2-ylmethyl)-8-(4-(trifluoromethyl)phenyl)-3,4,12,12a-tetrahydro-1H-benzo[f]pyrazino[2,1-c][1,4]oxazepin-6(2H)-one] | 21
CN(c1ccc(OC(F)(F)F)cc1)c1ccc2c(c1)C(=O)N(Cc1ncccn1)CCO2 [XIII-10, 7-(methyl(4-(trifluoromethoxy)phenyl)amino)-4-(pyrimidin-2-ylmethyl)-3,4-dihydrobenzo[f][1,4]oxazepin-5(2H)-one] | 22
CC(C)[C@H]1COc2ccc(-c3ccc(C(F)(F)F)cc3)cc2C(=O)N1 [II-77, (S)-3-isopropyl-7-(4-(trifluoromethyl)phenyl)-3,4-dihydrobenzo[f][1,4]oxazepin-5(2H)-one] | 21
CC1(CN2CCOc3ccc(-c4ccc(OC(F)(F)F)cc4)cc3C2=O)COC1 [II-1, 4-((3-methyloxetan-3-yl)methyl)-7-(4-(trifluoromethoxy)phenyl)-3,4-dihydrobenzo[f][1,4]oxazepin-5(2H)-one] | 25
O=C1c2cc(-c3ccc(OC(F)(F)F)cc3)ncc2OCCN1CC1CC1 [XII-9, 4-(cyclopropylmethyl)-7-(4-(trifluoromethoxy)phenyl)-3,4-dihydropyrido[4,3-f][1,4]oxazepin-5(2H)-one] | 22
O=C1c2cc(-c3ccc(OC(F)(F)F)cc3)ncc2OCCN1Cc1ncccn1 [XII-5, 4-(pyrimidin-2-ylmethyl)-7-(4-(trifluoromethoxy)phenyl)-3,4-dihydropyrido[4,3-f][1,4]oxazepin-5(2H)-one] | 25
CC(C)(C)OC(=O)N[C@@H]1C[C@@H]2COc3ccc(-c4ccc(C(F)(F)F)cc4)cc3C(=O)N2C1 [II-39, tert-butyl (2R,11aR)-5-oxo-7-(4-(trifluoromethyl)phenyl)-1,2,3,5,11,11a-hexahydrobenzo[f]pyrrolo[2,1-c][1,4]oxazepin-2-ylcarbamate] | 16
Cn1cncc1C(=O)N1CCOc2ccc(-c3ccc(C(F)(F)F)cc3)cc2C1 [III-32, (1-methyl-1H-imidazol-5-yl)(7-(4-(trifluoromethyl)phenyl)-2,3-dihydrobenzo[f][1,4]oxazepin-4(5H)-yl)methanone] | 22
CN(C)c1ccnc(CN2CCOc3ccc(-c4ccc(OC(F)(F)F)cc4)cc3C2=O)n1 [II-140, 4-((4-(dimethylamino)pyrimidin-2-yl)methyl)-7-(4-(trifluoromethoxy)phenyl)-3,4-dihydrobenzo[f][1,4]oxazepin-5(2H)-one] | 32
Cc1cc(OC(F)(F)F)ccc1-c1ccc2c(c1)C(=O)N(Cc1ncccn1)CCO2 [II-146, 7-(2-methyl-4-(trifluoromethoxy)phenyl)-4-(pyrimidin-2-ylmethyl)-3,4-dihydrobenzo[f][1,4]oxazepin-5(2H)-one] | 36
O=C1c2cc(-c3ccc(F)c(F)c3F)ccc2OCCN1Cc1ncccn1 [II-162, 4-(pyrimidin-2-ylmethyl)-7-(2,3,4-trifluorophenyl)-3,4-dihydrobenzo[f][1,4]oxazepin-5(2H)-one] | 20
O=C(c1nc[nH]n1)N1CCOc2ccc(-c3ccc(C(F)(F)F)cc3)cc2C1 [III-50, (1H-1,2,4-triazol-3-yl)(7-(4-(trifluoromethyl)phenyl)-2,3-dihydrobenzo[f][1,4]oxazepin-4(5H)-yl)methanone] | 24
O=C1c2cc(-c3ccc(OC(F)(F)F)cc3)ccc2OCCN1Cc1ccncc1 [II-67, 4-(pyridin-4-ylmethyl)-7-(4-(trifluoromethoxy)phenyl)-3,4-dihydrobenzo[f][1,4]oxazepin-5(2H)-one] | 22
O=C1c2cc(-c3ccc(OC(F)(F)F)cc3)ccc2OCCN1Cc1nnc(C2CC2)o1 [II-68, 4-((5-cyclopropyl-1,3,4-oxadiazol-2-yl)methyl)-7-(4-(trifluoromethoxy)phenyl)-3,4-dihydrobenzo[f][1,4]oxazepin-5(2H)-one] | 17
O=C1c2cc(/C=C/c3ccc(C(F)(F)F)cc3)ccc2OCCN1Cc1ccccc1 [VIII-10, (E)-4-benzyl-7-(4-(trifluoromethyl)styryl)-3,4-dihydrobenzo[f][1,4]oxazepin-5(2H)-one] | 25
O=C1c2cc(-c3ccc(OC(F)(F)F)cc3)ccc2OCCN1Cc1ccc(F)c(F)c1 [II-45, 4-(3,4-difluorobenzyl)-7-(4-(trifluoromethoxy)phenyl)-3,4-dihydrobenzo[f][1,4]oxazepin-5(2H)-one] | 27
O=C1c2cc(-c3ccc(F)c(F)c3)ccc2OCCN1Cc1ncccn1 [II-163, 7-(3,4-difluorophenyl)-4-(pyrimidin-2-ylmethyl)-3,4-dihydrobenzo[f][1,4]oxazepin-5 (2H)-one] | 28
